Read-outs that look alike come from different tables or passages of the source. Where a SMILES comes first, the peptide text is derived from it. [ ]: non-standard residue; d: D form. Aib = CC(C)(N)C(=O)O
How the values were obtained:
[1] = biological target: human GLP-1 receptor (Homo sapiens, UniProt P43220); assay: Functional GLP-1 receptor assay, in vitro potency (CRE luciferase; whole cells); assay type: cell-based; settings: BHK cells expressing human GLP-1 receptor
[2] = system: Mouse monocyte/macrophage cell line, RAW 264.7; assay: Cholesterol efflux assay (3H-cholesterol, macrophage cell line); assay type: cell-based; settings: RAW 264.7, 4 hrs incubation, 0.1% human serum albumin, ABCA1-mediated efflux
[3] = GLP1R CRE luc 1% HSA EC50 Mean Value, 1% HSA
[4] = 0% HSA, read-out: GLP1R CRE luc 0% HSA EC50 Mean Value

Chain of human GLP-1 receptor (P43220 24-463): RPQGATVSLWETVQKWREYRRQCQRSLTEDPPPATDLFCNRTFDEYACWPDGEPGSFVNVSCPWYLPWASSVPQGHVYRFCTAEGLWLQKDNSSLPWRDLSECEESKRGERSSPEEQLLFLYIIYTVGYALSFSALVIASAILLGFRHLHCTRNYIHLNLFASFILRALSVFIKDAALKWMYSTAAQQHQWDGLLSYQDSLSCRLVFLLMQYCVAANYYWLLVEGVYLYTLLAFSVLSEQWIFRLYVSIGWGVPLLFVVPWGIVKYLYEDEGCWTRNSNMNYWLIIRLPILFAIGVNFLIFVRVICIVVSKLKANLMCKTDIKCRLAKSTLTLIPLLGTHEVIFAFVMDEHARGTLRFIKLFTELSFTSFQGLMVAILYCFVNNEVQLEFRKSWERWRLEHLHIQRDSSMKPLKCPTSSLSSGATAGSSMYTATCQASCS

Row | Compound | EC50 [1, 3] | 4 h Cholesterol Efflux Emax [2] | EC50 [1, 4]
1 | CC[C@H](C)[C@H](NC(=O)[C@H](Cc1ccccc1)NC(=O)[C@H](CCC(=O)O)NC(=O)[C@H](CCCNC(=N)N)NC(=O)[C@@H](NC(=O)[C@H](C)NC(=O)[C@H](CCC(=O)O)NC(=O)[C@H](CCC(=O)O)NC(=O)[C@H](CCC(=O)O)NC(=O)[C@H](CCSC)NC(=O)[C@H](CCC(N)=O)NC(=O)[C@H](CCCCN)NC(=O)[C@H](CO)NC(=O)[C@H](CC(C)C)NC(=O)[C@H](CC(=O)O)NC(=O)[C@H](CO)NC(=O)[C@@H](NC(=O)[C@H](Cc1ccccc1)NC(=O)[C@@H](NC(=O)CNC(=O)[C@H](CCC(=O)O)NC(=O)C(C)(C)NC(=O)[C@@H](N)Cc1c[nH]cn1)[C@@H](C)O)[C@@H](C)O)C(C)C)C(=O)N[C@@H](CCC(=O)O)C(=O)N[C@@H](Cc1c[nH]c2ccccc12)C(=O)N[C@@H](CC(C)C)C(=O)N[C@@H](CCCCN)C(=O)N[C@@H](CC(N)=O)C(=O)N[C@@H](CCCCN)C(=O)NC(C)(C)C(=O)N[C@@H](CC(C)C)C(=O)N[C@@H](CCC(=O)O)C(=O)N[C@@H](Cc1ccccc1)C(=O)NCC(=O)N[C@@H](CCC(=O)O)C(=O)N[C@@H](CC(C)C)C(=O)N[C@@H](CC(C)C)C(N)=O [Compound 38, [Aib2,Glu21,Lys29,Aib30,Leu31,Glu32,Phe33,Glu35,Leu36,Leu371-Exendin-4-(1-37)-peptide amide] (H-H[Aib]EGTFTSDLSKQMEEEAVREFIEWLKNK[Aib]LEFGELL-NH2; N-terminus assumed) | 0.012 nM | 82% | 
2 | CC[C@H](C)[C@H](NC(=O)[C@H](Cc1ccccc1)NC(=O)[C@H](CCC(=O)O)NC(=O)[C@H](CCCCN)NC(=O)[C@@H](NC(=O)[C@H](C)NC(=O)[C@H](CCC(=O)O)NC(=O)CNC(=O)[C@H](CCC(=O)O)NC(=O)[C@H](CC(C)C)NC(=O)[C@H](Cc1ccc(O)cc1)NC(=O)[C@H](CO)NC(=O)[C@H](CO)NC(=O)[C@@H](NC(=O)[C@H](CC(=O)O)NC(=O)[C@H](CO)NC(=O)[C@@H](NC(=O)[C@H](Cc1ccccc1)NC(=O)[C@@H](NC(=O)CNC(=O)[C@H](CCC(=O)O)NC(=O)C(C)(C)NC(=O)[C@@H](N)Cc1c[nH]cn1)[C@@H](C)O)[C@@H](C)O)C(C)C)C(C)C)C(=O)N[C@@H](CCC(=O)O)C(=O)N[C@@H](Cc1c[nH]c2ccccc12)C(=O)N[C@@H](CC(C)C)C(=O)N[C@H](C(=O)N[C@@H](CCC(=O)O)C(=O)N[C@@H](CCCCN)C(=O)N[C@H](C(=O)N[C@@H](CCCCN)C(=O)N[C@@H](CCC(=O)O)C(=O)N[C@@H](CCCCN)C(=O)N[C@@H](CC(C)C)C(N)=O)C(C)C)C(C)C [Compound 112] (H-H[Aib]EGTFTSDVSSYLEGEAVKEFIEWLVEKVKEKL-NH2) | 0.039 nM | 119% | 0.163 nM
3 | CC[C@H](C)[C@H](NC(=O)[C@H](Cc1ccccc1)NC(=O)[C@H](CCC(=O)O)NC(=O)[C@H](CCCCN)NC(=O)[C@@H](NC(=O)[C@H](CCCNC(=N)N)NC(=O)[C@H](CCC(=O)O)NC(=O)CNC(=O)[C@H](CCC(=O)O)NC(=O)[C@H](CC(C)C)NC(=O)[C@H](Cc1ccc(O)cc1)NC(=O)[C@H](CO)NC(=O)[C@H](CO)NC(=O)[C@@H](NC(=O)[C@H](CC(=O)O)NC(=O)[C@H](CO)NC(=O)[C@@H](NC(=O)[C@H](Cc1ccccc1)NC(=O)[C@@H](NC(=O)CNC(=O)[C@H](CCC(=O)O)NC(=O)C(C)(C)NC(=O)[C@@H](N)Cc1c[nH]cn1)[C@@H](C)O)[C@@H](C)O)C(C)C)C(C)C)C(=O)N[C@@H](C)C(=O)N[C@@H](Cc1c[nH]c2ccccc12)C(=O)N[C@@H](CC(C)C)C(=O)N[C@H](C(=O)N[C@@H](CCC(=O)O)C(=O)N[C@@H](CCCCN)C(=O)NC(C)(C)C(=O)N[C@@H](CCCCN)C(=O)N[C@@H](CCC(=O)O)C(=O)N[C@@H](Cc1ccccc1)C(=O)N[C@@H](CC(C)C)C(N)=O)C(C)C [Compound 53, [Aib8,Glu23,Arg24,Val25,Glu34,Lys35,Aib36,Lys37]-GLP-1-(7-37)-peptidyl-Glu-Phe-Leu amide] (H-H[Aib]EGTFTSDVSSYLEGERVKEFIAWLVEK[Aib]KEFL-NH2) | 0.273 nM | 109% | 
4 | CC[C@H](C)[C@H](NC(=O)[C@H](Cc1ccccc1)NC(=O)[C@H](CCC(=O)O)NC(=O)[C@H](CCCCN)NC(=O)[C@@H](NC(=O)[C@H](C)NC(=O)[C@H](CCC(=O)O)NC(=O)CNC(=O)[C@H](CCC(=O)O)NC(=O)[C@H](CC(C)C)NC(=O)[C@H](Cc1ccc(O)cc1)NC(=O)[C@H](CO)NC(=O)[C@H](CO)NC(=O)[C@@H](NC(=O)[C@H](CC(=O)O)NC(=O)[C@H](CO)NC(=O)[C@@H](NC(=O)[C@H](Cc1ccccc1)NC(=O)[C@@H](NC(=O)CNC(=O)[C@H](CCC(=O)O)NC(=O)C(C)(C)NC(=O)[C@@H](N)Cc1c[nH]cn1)[C@@H](C)O)[C@@H](C)O)C(C)C)C(C)C)C(=O)N[C@@H](CCC(N)=O)C(=O)N[C@@H](Cc1c[nH]c2ccccc12)C(=O)N[C@@H](CC(C)C)C(=O)N[C@@H](CC(C)C)C(=O)N[C@@H](CCC(=O)O)C(=O)N[C@@H](CCCCN)C(=O)NC(C)(C)C(=O)N[C@@H](CCCCN)C(=O)N[C@@H](CCC(=O)O)C(=O)N[C@@H](Cc1ccccc1)C(=O)N[C@@H](CC(C)C)C(N)=O [Compound 79, [Aib8,Glu23,Val25,Gln30,Leu33,Glu34,Lys35,Aib36,Lys37]-GLP-1-(7-37)-peptidyl-Glu-Phe-Leu amide] (H-H[Aib]EGTFTSDVSSYLEGEAVKEFIQWLLEK[Aib]KEFL-NH2) | 0.061 nM | 100% | 
5 | CC[C@H](C)[C@H](NC(=O)[C@H](Cc1ccccc1)NC(=O)[C@H](CCC(=O)O)NC(=O)[C@H](CCCCN)NC(=O)[C@@H](NC(=O)[C@H](C)NC(=O)[C@H](CCC(=O)O)NC(=O)CNC(=O)[C@H](CCC(=O)O)NC(=O)[C@H](CC(C)C)NC(=O)[C@H](Cc1ccc(O)cc1)NC(=O)[C@H](CO)NC(=O)[C@H](CO)NC(=O)[C@@H](NC(=O)[C@H](CC(=O)O)NC(=O)[C@H](CO)NC(=O)[C@@H](NC(=O)[C@H](Cc1ccccc1)NC(=O)[C@@H](NC(=O)CNC(=O)[C@H](CCC(=O)O)NC(=O)C(C)(C)NC(=O)[C@@H](N)Cc1c[nH]cn1)[C@@H](C)O)[C@@H](C)O)C(C)C)C(C)C)C(=O)N[C@@H](C)C(=O)N[C@@H](Cc1c[nH]c2ccccc12)C(=O)N[C@@H](CC(C)C)C(=O)N[C@H](C(=O)N[C@@H](CCC(=O)O)C(=O)NCC(=O)NC(C)(C)C(=O)N[C@@H](CCCCN)C(=O)N[C@@H](CCC(=O)O)C(=O)N[C@@H](Cc1ccccc1)C(=O)N[C@@H](CC(C)C)C(N)=O)C(C)C [Compound 30, [Aib8,Glu23,Val25,Glu34,Aib36,Lys37]-GLP-1-(7-37)-peptidyl-Glu-Phe-Leu amide] (H-H[Aib]EGTFTSDVSSYLEGEAVKEFIAWLVEG[Aib]KEFL-NH2) | 0.013 nM | 75% | 0.034 nM
6 | CC[C@H](C)[C@H](NC(=O)[C@H](Cc1ccccc1)NC(=O)[C@H](CCC(=O)O)NC(=O)[C@H](CCCCN)NC(=O)[C@@H](NC(=O)[C@H](C)NC(=O)[C@H](CCC(=O)O)NC(=O)CNC(=O)[C@H](CCC(=O)O)NC(=O)[C@H](CC(C)C)NC(=O)[C@H](Cc1ccc(O)cc1)NC(=O)[C@H](CO)NC(=O)[C@H](CO)NC(=O)[C@@H](NC(=O)[C@H](CC(=O)O)NC(=O)[C@H](CO)NC(=O)[C@@H](NC(=O)[C@H](Cc1ccccc1)NC(=O)[C@@H](NC(=O)CNC(=O)[C@H](CCC(=O)O)NC(=O)C(C)(C)NC(=O)[C@@H](N)Cc1c[nH]cn1)[C@@H](C)O)[C@@H](C)O)C(C)C)C(C)C)C(=O)N[C@@H](C)C(=O)N[C@@H](Cc1c[nH]c2ccccc12)C(=O)N[C@@H](CC(C)C)C(=O)N[C@H](C(=O)N[C@@H](CCC(=O)O)C(=O)N[C@@H](CCCCN)C(=O)NC(C)(C)C(=O)N[C@@H](CCCCN)C(=O)N[C@@H](CCC(=O)O)C(N)=O)C(C)C [Compound 63, [Aib8,Glu23,Val25,Glu34,Lys35,Aib36,Lys37]-GLP-1-(7-37)-peptidyl-Glu amide] (H-H[Aib]EGTFTSDVSSYLEGEAVKEFIAWLVEK[Aib]KE-NH2) | 0.005 nM | 135% | 0.014 nM
7 | H-HGEGTFTSDVSSYLEEEAVKEFIAWLVEKVKEKL-NH2 [Compound 111, [Gly8,Glu22,Glu23,Val25,Glu34,Lys35,Val36,Lys37]-GLP-1-(7-37)-peptidyl-Glu-Lys-Leu amide] | 0.076 nM | 117% | 
8 | CC[C@H](C)[C@H](NC(=O)[C@H](Cc1ccccc1)NC(=O)[C@H](CCC(=O)O)NC(=O)[C@H](CCCCN)NC(=O)[C@@H](NC(=O)[C@H](C)NC(=O)[C@H](CCC(=O)O)NC(=O)CNC(=O)[C@H](CCC(=O)O)NC(=O)[C@H](CC(C)C)NC(=O)[C@H](Cc1ccc(O)cc1)NC(=O)[C@H](CO)NC(=O)[C@H](CO)NC(=O)[C@@H](NC(=O)[C@H](CC(=O)O)NC(=O)[C@H](CO)NC(=O)[C@@H](NC(=O)[C@H](Cc1ccccc1)NC(=O)[C@@H](NC(=O)CNC(=O)[C@H](CCC(=O)O)NC(=O)C(C)(C)NC(=O)[C@@H](N)Cc1c[nH]cn1)[C@@H](C)O)[C@@H](C)O)C(C)C)C(C)C)C(=O)N[C@@H](C)C(=O)N[C@@H](Cc1c[nH]c2ccccc12)C(=O)N[C@@H](CC(C)C)C(=O)N[C@H](C(=O)N[C@@H](CCC(=O)O)C(=O)N[C@@H](CCCCN)C(=O)NC(C)(C)C(=O)N[C@@H](CCCCN)C(=O)N[C@@H](CCC(=O)O)C(=O)N[C@@H](Cc1ccccc1)C(=O)N[C@@H](CC(C)C)C(=O)N[C@@H](CCC(=O)O)C(N)=O)C(C)C [Compound 66, [Aib8,Glu23,Val25,Glu34,Lys35,Aib36,Lys37]-GLP-1-(7-37)-peptidyl-Glu-Phe-Leu-Glu amide] | 0.039 nM | 102% | 0.101 nM
